# Measurements taken from patent US11926626B2, “Heterocyclic GLP-1 agonists” (Gasherbrum Bio, Inc., priority 2020, dated 2024).
# Biological target: GLP-1 Receptor (Homo sapiens, UniProt P43220)
# Assay: GLP-1R agonist cAMP stimulation assay (HEK293/GLP1R/CRE-Luc cells, HTRF cAMP)
# Assay type: cell-based
# Settings: not given
# Procedure: Activation of GLP-1 receptor is known to stimulate cyclic AMP (cAMP) production in cells which indicates primary coupling to the Gαs subunit of the G protein heterotrimeric complex.
# To optimize functional activity directed toward Gαs coupling, a HEK293/CRE-Luc cell line developed by HDB stably expressing the GLP-1 Receptor was used. […] 1×10^5 cells/mL HEK293/GLP1R/CRE-LUC(HD Biosciences) cell suspensions prepared with assay buffer[DPBS containing 0.5 mM IBMX (Sigma, Cat #I5879) and 0.1% BSA (GENVIEW, Cat #FA016-100g)], 10 uL cell suspensions were added to each well of previous generated assay plate which already contains 50 nl compound at 200×concentration using ThermoFisher Multidrop Combi (1000 cells/well). Seal the plate and incubate at 37° C. with 5% CO2 for 30 min.
# After incubation the cAMP assay signal was generated using cAMP dynamic 2 Kit (Cisbio). 5 μL cAMP-d2 working solution was added to each well, followed with 5 μL Anti-cAMP antibody-cryptate working solution added to each well using ThermoFisher Multidrop Combi. Incubate at room temperature for 1 hour protected from light.
# Chain of GLP-1 Receptor (P43220 24-463): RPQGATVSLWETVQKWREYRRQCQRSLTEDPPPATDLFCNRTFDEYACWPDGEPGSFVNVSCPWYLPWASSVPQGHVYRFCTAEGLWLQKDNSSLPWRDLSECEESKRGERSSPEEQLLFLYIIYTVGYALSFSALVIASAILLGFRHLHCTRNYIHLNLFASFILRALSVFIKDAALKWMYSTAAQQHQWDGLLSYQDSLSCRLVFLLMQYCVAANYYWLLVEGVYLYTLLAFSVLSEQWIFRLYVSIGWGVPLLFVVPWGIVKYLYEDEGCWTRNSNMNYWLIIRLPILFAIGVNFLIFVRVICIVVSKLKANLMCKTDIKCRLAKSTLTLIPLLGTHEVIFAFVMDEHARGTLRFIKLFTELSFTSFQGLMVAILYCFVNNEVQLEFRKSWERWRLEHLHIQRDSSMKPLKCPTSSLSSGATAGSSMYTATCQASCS
row,Structure (SMILES),GLP1R cAMP Stimulation DR: pEC50
1,"CC(c1cccc(OC2CCN(Cc3nc4ccc(C(=O)O)nc4n3C[C@@H]3CCO3)CC2)n1)c1ccc(Cl)cc1F (stereo partly drawn) [Compound 128a, 2-{[4-({6-[1-(4-chloro-2-fluorophenyl)ethyl]pyridin-2-yl}oxy)piperidin-1-yl]methyl}-3-{[(2S)-oxetan-2-yl]methyl}-3H-imidazo[4,5-b]pyridine-5-carboxylic acid]",8.9

# Same assay, conditions: 30 min, 37° C.
row,Structure (SMILES),GLP1R cAMP Stimulation DR: pEC50
1,"O=C(O)c1ccc2nc(CN3CCC(Oc4cccc(Cc5ccc(Cl)s5)n4)CC3)n(C[C@@H]3CCO3)c2n1 [Compound 147a, 2-{[4-({6-[(5-chlorothiophen-2-yl)methyl]pyridin-2-yl}oxy)piperidin-1-yl]methyl}-3-{[(2S)-oxetan-2-yl]methyl}-3H-imidazo[4,5-b]pyridine-5-carboxylic acid]",9.7
2,"O=C(O)c1ccc2nc(CC3CCN(C(=O)c4cccc(Cc5ccc(Cl)cc5F)n4)CC3)n(C[C@@H]3CCO3)c2n1 [Compound 106a, (S)-2-((1-(6-(4-Chloro-2-fluorobenzyl)picolinoyl)piperidin-4-yl)methyl)-3-(oxetan-2-ylmethyl)-3H-imidazo[4,5-b]pyridine-5-carboxylic acid]",6.33
3,"O=C(O)c1ccc2nc(CN3CCC(C(F)(F)c4cccc(Cc5ccc(Cl)cc5F)n4)CC3)n(C[C@@H]3CCO3)c2n1 [Compound 173a, 2-{[4-({6-[(4-chloro-2-fluorophenyl)methyl]pyridin-2-yl}difluoromethyl)piperidin-1-yl]methyl}-3-{[(2S)-oxetan-2-yl]methyl}-3H-imidazo[4,5-b]pyridine-5-carboxylic acid]",8.4

# Same assay, conditions: 30 min, 37° C.; read-out: GLP1R cAMP Stimulation DR: EC50
row,Structure (SMILES),EC50 [nM]
1,"O=C(O)c1ccc2nc(CN3CCC(Oc4cccc(Cc5ccc(Cl)s5)n4)CC3)n(C[C@@H]3CCO3)c2n1 [Compound 147a, 2-{[4-({6-[(5-chlorothiophen-2-yl)methyl]pyridin-2-yl}oxy)piperidin-1-yl]methyl}-3-{[(2S)-oxetan-2-yl]methyl}-3H-imidazo[4,5-b]pyridine-5-carboxylic acid]",0.2

# Same assay, conditions: HEK293/CRE-Luc cells stably expressing GLP-1 Receptor; 30 min, 37° C.
row,GLP1R cAMP Stimulation DR: pEC50,Structure (SMILES)
1,10.4,"O=C(O)c1ccc2nc(CN3CCC(Oc4ccnc(Cc5ccc(Cl)cc5)n4)CC3)n(C[C@@H]3CCO3)c2n1 [Compound 152a, 2-{[4-({2-[(4-chlorophenyl)methyl]pyrimidin-4-yl}oxy)piperidin-1-yl]methyl}-3-{[(2S)-oxetan-2-yl]methyl}-3H-imidazo[4,5-b]pyridine-5-carboxylic acid]"
2,<6.0,"O=C(O)c1ccc2nc(CN3CCC(Oc4cccc(Cc5ccc(Cl)cc5)c4Cl)CC3)n(C[C@@H]3CCO3)c2n1 [Compound 158a, 2-[(4-{2-chloro-3-[(4-chlorophenyl)methyl]phenoxy}piperidin-1-yl)methyl]-3-{[(2S)-oxetan-2-yl]methyl}-3H-imidazo[4,5-b]pyridine-5-carboxylic acid]"
3,7.4,"O=C(O)c1ccc2nc(CN3CCC(Oc4cccc(Cc5ccc(Cl)cc5)c4F)CC3)n(C[C@@H]3CCO3)c2n1 [Compound 157a, 2-[(4-{3-[(4-chlorophenyl)methyl]-2-fluorophenoxy}piperidin-1-yl)methyl]-3-{[(2S)-oxetan-2-yl]methyl}-3H-imidazo[4,5-b]pyridine-5-carboxylic acid]"
4,6.6,"O=C(O)c1ccc2nc(C[C@H]3CC[C@@H](Oc4ccnc(Cc5ccc(Cl)cc5F)n4)CC3)n(C[C@@H]3CCO3)c2n1 [Compound 175a, 3-{[(2S)-oxetan-2-yl]methyl}-2-{[cis-4-({2-[(4-chloro-2-fluorophenyl)methyl]pyrimidin-4-yl}oxy)cyclohexyl]methyl}-3H-imidazo[4,5-b]pyridine-5-carboxylic acid]"
5,9.4,"N#Cc1ccc(Cc2cccc(OC3CCN(Cc4nc5ccc(C(=O)O)nc5n4C[C@@H]4CCO4)CC3)n2)c(F)c1 [Compound 136a, 2-{[4-({6-[(4-cyano-2-fluorophenyl)methyl]pyridin-2-yl}oxy)piperidin-1-yl]methyl}-3-{[(2S)-oxetan-2-yl]methyl}-3H-imidazo[4,5-b]pyridine-5-carboxylic acid]"
6,9.4,"O=C(O)c1ccc2nc(Cc3ccc(Oc4nc(Cc5ccc(Cl)cc5)ncc4F)cc3F)n(C[C@@H]3CCO3)c2n1 [Compound 190a, 2-{[4-({2-[(4-chlorophenyl)methyl]-5-fluoropyrimidin-4-yl}oxy)-2-fluorophenyl]methyl}-3-{[(2S)-oxetan-2-yl]methyl}-3H-imidazo[4,5-b]pyridine-5-carboxylic acid]"
7,8.3,"O=C(O)c1ccc2nc(CN3CCC(Oc4ccc(=O)n(Cc5ccc(Cl)cc5F)n4)CC3)n(C[C@@H]3CCO3)c2n1 [Compound 144a, 2-{[4-({1-[(4-chloro-2-fluorophenyl)methyl]-6-oxo-1,6-dihydropyridazin-3-yl}oxy)piperidin-1-yl]methyl}-3-{[(2S)-oxetan-2-yl]methyl}-3H-imidazo[4,5-b]pyridine-5-carboxylic acid]"
8,8.5,"CCOCCn1c(CN2CCC(Oc3ccnc(Cc4ccc(Cl)cc4)n3)CC2)nc2ccc(C(=O)O)nc21 [Compound 194, 2-((4-((2-(4-chlorobenzyl)pyrimidin-4-yl)oxy)piperidin-1-yl)methyl)-3-(2-ethoxyethyl)-3H-imidazo[4,5-b]pyridine-5-carboxylic acid]"
9,10.1,"O=C(O)c1ccc2nc(CN3CCC(Oc4nc(Cc5ccc(Cl)cc5F)ncc4F)CC3)n(C[C@@H]3CCO3)c2n1 [Compound 151a, (S)-2-((4-((2-(4-chloro-2-fluorobenzyl)-5-fluoropyrimidin-4-yl)oxy)piperidin-1-yl)methyl)-3-(oxetan-2-ylmethyl)-3H-imidazo[4,5-b]pyridine-5-carboxylic acid]"

# Further lines, the compound ahead of its results:
row,Structure (SMILES),GLP1R cAMP Stimulation DR: pEC50
1,"O=C(O)c1ccc2nc(CN3CCC(Oc4cc(Cl)cc(Cc5ccc(Cl)cc5)n4)CC3)n(C[C@@H]3CCO3)c2n1 [Compound 155a, 2-{[4-({4-chloro-6-[(4-chlorophenyl)methyl]pyridin-2-yl}oxy)piperidin-1-yl]methyl}-3-{[(2S)-oxetan-2-yl]methyl}-3H-imidazo[4,5-b]pyridine-5-carboxylic acid]",8.4
2,"O=C(O)c1ccc2nc(CN3CCC(n4ccc5ccc(Cc6ccc(Cl)cc6F)nc54)CC3)n(C[C@@H]3CCO3)c2n1 [Compound 140a, 2-[(4-{6-[(4-chloro-2-fluorophenyl)methyl]-1H-pyrrolo[2,3-b]pyridin-1-yl}piperidin-1-yl)methyl]-3-{[(2S)-oxetan-2-yl]methyl}-3H-imidazo[4,5-b]pyridine-5-carboxylic acid]",8.9
3,"O=C(O)c1ccc2nc(CN3CCC(Oc4cccc(Cc5ccc(Cl)cc5F)n4)C3)n(C[C@@H]3CCO3)c2n1 (stereo partly drawn) [Compound 130a, 2-{[3-({6-[(4-chloro-2-fluorophenyl)methyl]pyridin-2-yl}oxy)pyrrolidin-1-yl]methyl}-3-{[(2S)-oxetan-2-yl]methyl}-3H-imidazo[4,5-b]pyridine-5-carboxylic acid]",7.3
4,"N#CC1(Cn2c(CN3CCC(Oc4ccnc(Cc5ccc(Cl)cc5F)n4)CC3)nc3ccc(C(=O)O)cc32)CC1 [Compound 162, 2-{[4-({2-[(4-chloro-2-fluorophenyl)methyl]pyrimidin-4-yl}oxy)piperidin-1-yl]methyl}-1-[(1-cyanocyclopropyl)methyl]-1H-1,3-benzodiazole-6-carboxylic acid]",10.1
5,"O=C(O)c1ccc2nc(CN3CCC(Oc4cccc(Cc5ccc(Cl)cc5)n4)CC3)n(C[C@@H]3CCO3)c2n1 [Compound 124a, (S)-2-((4-((6-(4-chlorobenzyl)pyridin-2-yl)oxy)piperidin-1-yl)methyl)-3-(oxetan-2-ylmethyl)-3H-imidazo[4,5-b]pyridine-5-carboxylic acid]",10.4
6,"O=C(O)c1ccc2nc(Cc3ccc(Oc4nc(Cc5ccc(Cl)cc5)ncc4F)cc3)n(C[C@@H]3CCO3)c2n1 [Compound 189a, 2-{[4-({2-[(4-chlorophenyl)methyl]-5-fluoropyrimidin-4-yl}oxy)phenyl]methyl}-3-{[(2S)-oxetan-2-yl]methyl}-3H-imidazo[4,5-b]pyridine-5-carboxylic acid]",9.2
7,"O=C(O)c1ccc2nc(CN3CCC(Oc4ccnc(Cc5ccc(Cl)cc5)n4)CC3)n(C[C@H]3CCOC3)c2n1 [Compound 196a, (R)-2-((4-((2-(4-chlorobenzyl)pyrimidin-4-yl)oxy)piperidin-1-yl)methyl)-3-((tetrahydrofuran-3-yl)methyl)-3H-imidazo[4,5-b]pyridine-5-carboxylic acid]",8.9
8,"O=C(O)c1ccc2nc(CN3CCC(Oc4cc(Cc5ccc(Cl)cc5F)ccc4F)CC3)n(C[C@@H]3CCO3)c2n1 [Compound 114a, 2-[(4-{5-[(4-chloro-2-fluorophenyl)methyl]-2-fluorophenoxy}piperidin-1-yl)methyl]-3-{[(2S)-oxetan-2-yl]methyl}-3H-imidazo[4,5-b]pyridine-5-carboxylic acid]",8.8
9,"O=C(O)c1ccc2nc(CN3CCC(Oc4nc(Cc5ccc(Cl)cc5F)ccc4Cl)CC3)n(C[C@@H]3CCO3)c2n1 [Compound 137a, 2-{[4-({3-chloro-6-[(4-chloro-2-fluorophenyl)methyl]pyridin-2-yl}oxy)piperidin-1-yl]methyl}-3-{[(2S)-oxetan-2-yl]methyl}-3H-imidazo[4,5-b]pyridine-5-carboxylic acid]",7.3
10,"Cc1cc(Cc2ccc(Cl)cc2)nc(OC2CCN(Cc3nc4ccc(C(=O)O)nc4n3C[C@@H]3CCO3)CC2)c1 [Compound 154a, 2-{[4-({6-[(4-chlorophenyl)methyl]-4-methylpyridin-2-yl}oxy)piperidin-1-yl]methyl}-3-{[(2S)-oxetan-2-yl]methyl}-3H-imidazo[4,5-b]pyridine-5-carboxylic acid]",7.6
